pIC50: −log10 of the molar value.
What was measured:
[1] = target: T1, human UT-B (Homo sapiens, UniProt Q13336); assay: Stopped-flow light scattering assay of erythrocyte urea transport, human erythrocytes; type: cell-based; conditions: urea influx, 100 mM inwardly directed urea gradient
T1 construct: endogenous in cells; host or cells: erythrocytes in human venous whole blood
T1 sequence (Q13336 1-389): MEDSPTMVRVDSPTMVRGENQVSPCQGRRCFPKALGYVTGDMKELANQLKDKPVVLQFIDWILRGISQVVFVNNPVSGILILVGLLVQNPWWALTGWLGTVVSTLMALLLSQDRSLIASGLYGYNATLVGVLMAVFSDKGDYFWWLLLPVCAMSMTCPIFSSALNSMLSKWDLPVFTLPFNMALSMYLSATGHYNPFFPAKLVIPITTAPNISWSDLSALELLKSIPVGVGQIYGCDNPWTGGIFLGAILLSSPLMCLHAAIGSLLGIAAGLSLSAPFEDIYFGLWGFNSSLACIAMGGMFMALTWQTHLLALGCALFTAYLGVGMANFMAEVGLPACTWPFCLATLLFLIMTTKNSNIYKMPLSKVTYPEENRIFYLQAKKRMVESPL
Protocol: Erythrocyte urea and water permeabilities were measured by stopped-flow light scattering using a Hi-Tech Sf-51 instrument (Wiltshire, UK). For measurement of urea permeability, dilutions of whole blood (mouse or human) in PBS (hematocrit ˜0.5%) were incubated with test compounds for 5 min and then subjected to a 100-mM inwardly directed urea gradient. After an initial osmotic shrinking phase, the kinetics of increasing cell volume caused by urea influx was measured as the time-course of 90° scattered light intensity at 530 nm, with increasing cell volume producing reduced scattered light intensity. Urea permeability and percentage inhibition were computed as described (see, e.g., Levin et al., FASEB J. supra, 2007)). In some experiments, different urea gradients (25-200 mM) were used, or inhibitor was added only to the erythrocyte-containing or urea-containing solutions. […] Osmotic water permeability was measured using a 100 mM gradient of sucrose.
UT-B inhibition potency was assayed quantitatively by stopped-flow light scattering from the kinetics of urea influx in response to an inwardly directed urea gradient (see Materials and Methods above). […]
Measurements were done using a Hi-Tech Sf-51 instrument (Wiltshire, UK). […] The kinetics of increasing cell volume caused by urea influx was measured as the time-course of 90° scattered light intensity at 530 nm. […]

[2] = target: T2, AQP1 (Mus musculus, UniProt Q02013); assay: Erythrocyte osmotic water permeability by stopped-flow light scattering, wild type erythrocytes; type: cell-based; conditions: 100 mM sucrose gradient, 10 °C
T2 construct: endogenous in cells; host or cells: erythrocytes of wild-type CD1 mice
T2 sequence (Q02013 1-269): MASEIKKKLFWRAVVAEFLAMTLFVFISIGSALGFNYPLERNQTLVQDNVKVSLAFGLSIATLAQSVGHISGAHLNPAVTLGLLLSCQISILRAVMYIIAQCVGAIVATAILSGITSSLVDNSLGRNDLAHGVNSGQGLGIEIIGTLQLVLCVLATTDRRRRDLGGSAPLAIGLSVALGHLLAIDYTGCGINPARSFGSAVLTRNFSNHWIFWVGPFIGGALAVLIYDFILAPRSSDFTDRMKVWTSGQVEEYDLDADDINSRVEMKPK
Protocol: (§1) Erythrocyte urea and water permeabilities were measured by stopped-flow light scattering using a Hi-Tech Sf-51 instrument (Wiltshire, UK). […] Urea permeability and percentage inhibition were computed as described (see, e.g., Levin et al., FASEB J. supra, 2007)). In some experiments, different urea gradients (25-200 mM) were used, or inhibitor was added only to the erythrocyte-containing or urea-containing solutions. In some experiments an outwardly directed urea gradient was used in which erythrocytes were incubated for 30 min with PBS containing specified urea and mixed in the stopped-flow apparatus with PBS. In reversibility experiments, erythrocytes were incubated for 30 min with inhibitor, washed three times to remove inhibitor, and urea transport assayed. Osmotic water permeability was measured using a 100 mM gradient of sucrose.
(§2) Erythrocyte osmotic water permeability was measured by stopped-flow light scattering. […] Life Sci. 52:474-78 (2009)).

[3] = tested on: AQP1-null erythrocytes; assay: Erythrocyte osmotic water permeability by stopped-flow light scattering, AQP1-null erythrocytes; type: cell-based, mouse; conditions: 100 mM sucrose gradient, 10 °C
Protocol: as §1, §2

[4] = tested on: mice; assay: Urinary concentration in mice; type: in vivo, mouse
Protocol: In some studies, mice were placed on low, normal or […] diets (4%, 20% or 40% casein, Harlan Labs.) for 1 week prior study of dDAVP effects. […] Urea concentration was determined by a colorimetric enzymatic assay as described above. Measurements were also done in the absence of dDAVP in which urine was collected during free access to food and water. […]

[5] = tested on: mice; assay: Urinary concentration in mice; type: in vivo, mouse; conditions: 1 week high-protein diet, 300 μg
[6] = free access to food and water, no dDAVP, 300 μg

CCc1ccc(S(=O)(=O)c2nnn3c2nc(NCc2cccs2)c2sccc23)cc1 [UTBinh-14, [3-(4-Ethyl-benzenesulfonyl)-thieno[2,3-e][1,2,3]triazolo[1,5-a]pyrimidin-5-yl]-thiophen-2-ylmethylamine]
pIC50 [1]: 7.99 | inhibition of water transport in erythrocytes from wild type mice [2]: no significant inhibition | water transport in AQP1-null erythrocytes [3]: inhibited water transport significantly | urine osmolality, UT-B knockout mice ([4]; 300 μg intraperitoneal, dDAVP): did not significantly reduce | urine urea concentration, UT-B knockout mice ([4]; 300 μg intraperitoneal, dDAVP): did not significantly reduce | urine osmolality, wild type mice ([4]; 300 μg intraperitoneal, dDAVP 1 h later): significantly reduced | effect on dDAVP-stimulated urinary concentration, low-protein diet ([4]; 1 week low-protein diet, 300 μg): little effect | urine osmolality [4, 6]: reduced | urine urea concentration [4, 6]: reduced | urine volume [4, 6]: significantly increased | effect on dDAVP-stimulated urinary concentration, high-protein diet [5]: robust effect

Source: patent publication US9303042B2, “Triazolothienopyrimidine compound inhibitors of urea transporters and methods of using inhibitors” (The Regents of the University of California, priority 2012, dated 2016)
